US12565475B2, “Small molecule compound inhibiting signal transmission path of TLR7 and TLR9 and use thereof” (AJOU UNIVERSITY INDUSTRY-ACADEMIC COOPERATION FOUNDATION, priority 2019, dated 2026)

Legend:
TLR9 [1] = target: T1, TLR9 (Mus musculus, UniProt Q9EQU3); test: TLR9-mediated TNF-α secretion (ODN2395 stimulation), ELISA; type: cell-based, murine; conditions: for inhibitory efficacy on TLR9-mediated TNF-α secretion: RAW 264.7, 10 or 50 μM, ODN2395 (FIG. 4A)
T1 construct: endogenous in cells; host or cells: RAW 264.7
T1 sequence (Q9EQU3 26-1032): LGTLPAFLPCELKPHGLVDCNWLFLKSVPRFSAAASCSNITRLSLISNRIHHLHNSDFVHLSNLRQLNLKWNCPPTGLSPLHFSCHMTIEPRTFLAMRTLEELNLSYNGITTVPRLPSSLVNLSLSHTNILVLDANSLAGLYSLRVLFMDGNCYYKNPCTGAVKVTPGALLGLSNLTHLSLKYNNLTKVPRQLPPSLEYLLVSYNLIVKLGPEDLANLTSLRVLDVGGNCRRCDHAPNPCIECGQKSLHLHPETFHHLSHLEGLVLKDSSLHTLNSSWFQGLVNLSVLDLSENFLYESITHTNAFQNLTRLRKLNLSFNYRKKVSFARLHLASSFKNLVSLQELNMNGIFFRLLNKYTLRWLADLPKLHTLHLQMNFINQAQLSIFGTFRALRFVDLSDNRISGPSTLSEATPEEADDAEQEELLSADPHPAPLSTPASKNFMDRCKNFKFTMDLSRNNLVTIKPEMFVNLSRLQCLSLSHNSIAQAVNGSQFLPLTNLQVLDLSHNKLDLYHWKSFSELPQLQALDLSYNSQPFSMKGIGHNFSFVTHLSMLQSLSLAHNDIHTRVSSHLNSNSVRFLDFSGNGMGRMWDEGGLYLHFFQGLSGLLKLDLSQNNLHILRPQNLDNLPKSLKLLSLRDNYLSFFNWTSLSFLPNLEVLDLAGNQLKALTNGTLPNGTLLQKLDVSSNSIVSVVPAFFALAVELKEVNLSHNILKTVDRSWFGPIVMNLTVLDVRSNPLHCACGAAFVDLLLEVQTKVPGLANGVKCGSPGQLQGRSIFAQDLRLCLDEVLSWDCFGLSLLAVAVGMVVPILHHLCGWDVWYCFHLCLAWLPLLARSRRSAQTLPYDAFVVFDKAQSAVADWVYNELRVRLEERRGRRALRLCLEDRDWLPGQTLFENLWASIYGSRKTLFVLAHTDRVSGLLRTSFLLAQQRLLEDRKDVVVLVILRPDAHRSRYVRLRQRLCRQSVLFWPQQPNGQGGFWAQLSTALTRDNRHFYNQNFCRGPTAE
Description: (§1) Agonists specific to TLR1/TLR2 (Pam3CSK4), TLR2/TLR6 (FSL-1), TLR3 (Poly I:C), TLR7 (imiquimod), and TLR8 (TL8-506) were purchased from InvivoGen Ltd. (Hong-Kong, China), and a TLR4-specific agonist (LPS from E. coli O111:B4) was purchased from Sigma-Aldrich, Inc. For TLR9-specific stimulation, class C CpG-ODN (ODN2395, 5′-TCGTCGTTTTCGGCGCGCGCCG-3′) having full phosphorothioate backbone modification was synthesized (Bioneer, Inc., Daejeon, Korea). All TLR agonists were dissolved in deionized water and applied to a culture media for TLR activation. The cells were treated with test compounds or a control medium for 1 hour, and then stimulated with a TLR agonist for 4 hours, or 24 hours in the case of poly(I:C), and the cytokine secretion was monitored.
(§2) RAW 264.7 or differentiated THP-1 cell lines were seeded onto a 96-well culture plate at a density of 2×10^4 cells/well. The cells were treated with test compounds for 1 hour followed by the stimulation with TLR agonists for 4 hours. The supernatant was transferred to pre-coated assay plates, and the secretion levels of mouse and human TNF-α were measured by respective ELISA kits (Invitrogen, Carlsbad, CA, USA). All experiments were performed according to the manufacturer's instructions. Absorbance was measured by a microplate reader spectrophotometer (Molecular Devices, Inc., San Jose, CA, USA), and data was interpolated from a standard curve using SoftMax Pro 5.3 software (Molecular Devices, Inc.).
(§3) In order to evaluate the antagonistic effect of each compound on TLR7/TLR9 through ELISA (enzyme-linked immunosorbent assay), RAW 264.7 cells were pretreated with the eight compounds followed by the stimulation with a TLR7-specific agonist (imiquimod, 3.61 μM) or with a TLR9-specific agonist (ODN2395, 0.5 μM). […] Since the two ligands had no agonistic effect per se (FIG. 3B), the increased cytokine production may be due to cell activation (or non-specific cellular stress) by co-treatment. Consequently, TIC10 was selected as the most suitable lead for further optimization to improve the inhibitory potency against both TLR7 and TLR9.

RAW 264.7 cells [2] = test: MTT cell viability / cytotoxicity assay; type: cell-based, murine; conditions: 50 μM, 24 hours
Description: RAW 264.7 cells were seeded onto 96-well cell culture plate at a density of 2×10^4 cells/well and allowed to stabilize overnight. The cells were treated with test compounds or a negative control (DMSO; dimethyl sulfoxide) for 24 hours, where the final DMSO concentration of the treated well was 0.25%. Then, the medium was removed, and 500 μg/ml of an MTT (3-(4,5-dimethylthiazol-2-yl)-2,5-diphenyltetrazolium bromide, InvivoGen Ltd.) solution was added to each well. After 3 hours, the solution was replaced with DMSO (Biosesang Co. Ltd., Korea), and incubated for an additional 30 minutes to complete formazan dissolution. Absorbance was measured by a microplate colorimetric reader at a wavelength of 595 nm and normalized to the control for the determination of the cell viability. All incubations were performed under the same conditions as described above.
Before testing the antagonistic properties of the selected compounds, an MTT (3-(4,5-dimethylthiazol-2-yl)-2,5-diphenyltetrazolium bromide) assay was performed, whereby the cytotoxicity of the compounds in a murine macrophage cell line (RAW 264.7) was monitored. […] The other ligands were excluded as test subjects due to the high cytotoxicity thereof.

RAW 264.7 cells [3] = test: Agonistic activity: TNF-α secretion after stimulation with compound alone (ELISA); type: cell-based, murine; conditions: compound alone 24 hours
TLR7 = target: T2, TLR7 (Mus musculus, UniProt P58681); test: TLR7-mediated TNF-α secretion (imiquimod stimulation), ELISA; type: cell-based, murine; conditions: for inhibitory efficacy on TLR7-mediated TNF-α secretion: RAW 264.7, 10 or 50 μM, imiquimod (FIG. 4B)
T2 construct: endogenous in cells; host or cells: RAW 264.7
T2 sequence (P58681 27-1050): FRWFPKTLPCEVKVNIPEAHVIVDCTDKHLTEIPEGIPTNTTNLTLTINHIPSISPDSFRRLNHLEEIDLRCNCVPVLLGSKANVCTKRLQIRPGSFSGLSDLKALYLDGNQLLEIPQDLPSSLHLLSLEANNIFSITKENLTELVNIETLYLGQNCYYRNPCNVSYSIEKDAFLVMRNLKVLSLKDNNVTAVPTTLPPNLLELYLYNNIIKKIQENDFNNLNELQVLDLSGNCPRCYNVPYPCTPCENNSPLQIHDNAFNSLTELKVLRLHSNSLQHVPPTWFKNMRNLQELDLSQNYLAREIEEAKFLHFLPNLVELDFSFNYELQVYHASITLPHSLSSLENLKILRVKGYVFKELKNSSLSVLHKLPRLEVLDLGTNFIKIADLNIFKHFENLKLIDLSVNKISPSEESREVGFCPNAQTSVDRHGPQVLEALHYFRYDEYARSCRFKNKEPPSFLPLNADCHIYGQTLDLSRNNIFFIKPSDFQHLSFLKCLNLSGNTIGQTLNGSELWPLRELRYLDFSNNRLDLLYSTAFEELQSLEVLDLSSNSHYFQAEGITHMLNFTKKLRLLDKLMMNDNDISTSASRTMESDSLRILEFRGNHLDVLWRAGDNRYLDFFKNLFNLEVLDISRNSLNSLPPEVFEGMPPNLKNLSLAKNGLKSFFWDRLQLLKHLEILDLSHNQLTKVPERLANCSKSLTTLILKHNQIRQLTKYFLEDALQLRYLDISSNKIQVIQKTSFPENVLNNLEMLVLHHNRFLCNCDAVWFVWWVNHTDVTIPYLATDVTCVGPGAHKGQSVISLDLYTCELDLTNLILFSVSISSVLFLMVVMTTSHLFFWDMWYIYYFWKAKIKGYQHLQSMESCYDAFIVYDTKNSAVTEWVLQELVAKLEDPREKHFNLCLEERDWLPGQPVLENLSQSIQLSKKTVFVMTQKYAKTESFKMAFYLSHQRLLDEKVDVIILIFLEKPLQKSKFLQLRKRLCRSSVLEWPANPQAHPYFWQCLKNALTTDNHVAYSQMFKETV
Description: as §1, §2, §3

TLR9 [4] = target: T3, TLR9 (Homo sapiens, UniProt Q9NR96); conditions: Target TLR9; values from cited literature/patent; cited from earlier work
T3 sequence (Q9NR96 26-1032): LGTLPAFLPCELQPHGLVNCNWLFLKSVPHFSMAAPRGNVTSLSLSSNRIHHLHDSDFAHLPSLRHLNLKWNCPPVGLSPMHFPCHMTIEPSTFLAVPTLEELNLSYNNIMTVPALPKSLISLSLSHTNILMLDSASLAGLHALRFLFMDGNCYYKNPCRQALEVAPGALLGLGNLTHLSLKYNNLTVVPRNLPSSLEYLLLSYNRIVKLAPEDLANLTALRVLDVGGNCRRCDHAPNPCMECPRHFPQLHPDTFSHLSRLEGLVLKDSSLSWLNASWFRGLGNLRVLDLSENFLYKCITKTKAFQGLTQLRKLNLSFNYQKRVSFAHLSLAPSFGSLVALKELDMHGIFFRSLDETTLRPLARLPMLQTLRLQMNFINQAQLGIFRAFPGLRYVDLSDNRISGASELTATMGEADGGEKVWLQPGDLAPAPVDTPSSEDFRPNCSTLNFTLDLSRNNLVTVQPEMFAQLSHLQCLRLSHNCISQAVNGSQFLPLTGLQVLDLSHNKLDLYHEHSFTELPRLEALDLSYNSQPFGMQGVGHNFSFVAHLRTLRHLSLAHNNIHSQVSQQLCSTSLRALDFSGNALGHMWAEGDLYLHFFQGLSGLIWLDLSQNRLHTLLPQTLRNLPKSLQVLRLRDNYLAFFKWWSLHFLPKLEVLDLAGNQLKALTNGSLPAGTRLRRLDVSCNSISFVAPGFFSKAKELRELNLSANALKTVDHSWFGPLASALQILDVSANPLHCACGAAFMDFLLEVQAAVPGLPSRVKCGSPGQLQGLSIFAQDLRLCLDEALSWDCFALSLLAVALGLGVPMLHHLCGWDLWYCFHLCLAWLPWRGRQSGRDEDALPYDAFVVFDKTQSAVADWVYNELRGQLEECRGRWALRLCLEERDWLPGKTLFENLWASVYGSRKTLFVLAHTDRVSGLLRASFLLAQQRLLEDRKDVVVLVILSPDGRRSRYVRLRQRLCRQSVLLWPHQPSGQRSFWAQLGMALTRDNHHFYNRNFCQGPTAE

Row | SMILES | IC50 (TLR9 [4]) [µM] | inhibitory efficacy on TLR9-mediated TNF-α secretion (TLR9 [1]) | inhibitory efficacy on TLR7-mediated TNF-α secretion (TLR7) | other results
1 | COc1ccc(-c2cnc(NCc3cccc(OC)c3O)n2C)cc1 [TIC10, 2-methoxy-6-({[5-(4-methoxyphenyl)-1-methyl-1H-imidazol-2-yl]amino}methyl)phenol] |  |  |  | inhibition of TLR9-mediated TNF-α secretion (TLR9 [1]; RAW 264.7, 50 μM, pretreated 1 hour, ODN2395 0.5 μM 4 hours): significantly inhibit; cytotoxicity (MTT assay) (RAW 264.7 cells [2]): non-toxic or marginally toxic; expression of proinflammatory cytokine TNF-α on stimulation with ligand alone (agonistic role) (RAW 264.7 cells [3]): did not induce the expression of proinflammatory cytokine TNF-α; inhibition of TLR7-mediated TNF-α secretion (TLR7; RAW 264.7, at 50 µM, pretreated 1 hour, imiquimod 3.61 μM 4 hours): inhibited
2 | COc1cc2nc(-c3ccc(N4CCN(C)CC4)cc3)nc(NCCN3CCOCC3)c2cc1OC [CPG-52364] | 0.0046 |  |  | 
3 | CN1CCN(c2ccc(-c3nc(NCCN4CCOCC4)c4ccccc4n3)cc2)CC1 [CHEMBL457704] | 0.02 |  |  | 
4 | CCOc1ccc(-c2cnc(NCc3cccc(OC)c3OC)n2C)cc1 [TIC10-8] |  | improved inhibitory efficacy compared to TIC10 | improved inhibitory efficacy compared to TIC10 | 
5 | CN(C)CCNc1nc(-c2ccc(N3CCN(C)CC3)cc2)nc2ccccc12 [CHEMBL515364] | 0.03 |  |  | 
6 | CCOc1ccc(-c2cnc(NCc3ccc(OC)c(OC)c3OC)n2C)cc1 [TIC10-3] |  | improved inhibitory efficacy compared to TIC10 | improved inhibitory efficacy compared to TIC10 | 
